Reference: patent US20190160021A1, “Substituted Stilbenes as Inhibitors of NF-kappaB and Activators of Nrf2” (STC.UNM, priority 2017, published 2019)
pEC50: −log10 of the molar value.

tested on: Nrf2; test: Nrf2-ARE reporter-HepG2 stable cell line luciferase reporter assay for activators of Nrf2; assay type: cell-based; conditions: Nrf2-ARE reporter-HepG2 cells, from dose-response curves; read-out: EC50, concentration that produced 50% activation of Nrf2
Method: A Nrf2-ARE reporter-HepG2 stable cell line (BPS Bioscience, San Diego, Calif.) is grown in a humidified atmosphere at 37° C. in 5% CO295% air. The cells are maintained in MEM medium with Earles balanced salts and L-glutamine supplemented with 10% fetal bovine serum (FBS), 1 mM sodium pyruvate, 1% non-essential amino acids, 100 units/ml penicillin, 100 μg/ml streptomycin, and 400 μg/ml Geneticin. One day prior to treatment, the Nrf2-ARE cells are plated into 24-well cell culture plates at approximately 30% confluency in the above media without Geneticin. The following day, fresh media with or without substituted trans stilbene or sulforaphane is applied to the cells. DMSO concentrations are kept at 0.1%. The cells are again placed in a humidified atmosphere at 37° C. in 5% CO2/95% air for 5 hours. Plate wells are gently washed with phosphate buffered saline (PBS) pH 7.4 and lysed with 1× passive lysis buffer (Promega, Madison, Wis., USA). The subsequent lysates are analyzed with the Luciferase Assay System (Promega) utilizing a GloMax 20/20 luminometer (Promega, Sunnyvale, Calif., USA). The firefly luciferase relative light units are normalized to protein (mg/ml) with BCATM Protein Assay Kit protein (Pierce, Rockford, Ill., USA)

pEC50 | Compound
5.92 | C[S+]([O-])CCCCN=C=S (centres unmarked) [sulforaphane]
5.27 | Oc1ccc(C=Cc2cc(O)cc(O)c2)cc1 [Resveratrol, resveratrol]

same assay, conditions: Nrf2-ARE reporter-HepG2 cells, screened at 15 μM

Compound | fold activation (extent of activation) of Nrf2 [fold]
COc1cccc(/C=C/c2ccc(C(F)(F)F)cc2)c1OC [trans stilbene 54, (E)-1,2-Dimethoxy-3-(4-(trifluoromethyl)styryl)benzene] | 65.5

tested on: not given; test: not given; conditions: not given

melting point [°C] | Compound
34 to 35 | COc1ccccc1/C=C/c1ccccc1F [trans stilbene 10, (E)-1-Fluoro-2-(2-methoxystyryl)benzene]
72 to 73 | Cc1ccc(/C=C/c2ccc(F)cc2F)cc1 [trans stilbene 37, (E)-2,4-Difluoro-1-(4-methylstyryl)benzene]
50 to 51 | COc1cccc(/C=C/c2ccc(F)cc2)c1OC [trans stilbene 17, (E)-1-(4-Fluorostyryl)-2,3-dimethoxybenzene]
76 to 77 | Fc1ccc(/C=C/c2cc(F)ccc2F)cc1 [trans stilbene 40, (E)-1,4-Difluoro-2-(4-fluorostyryl)benzene]
48 to 49 | COc1cccc(/C=C/c2cc(OC)ccc2OC)c1 [trans stilbene 50, (E)-1,4-Dimethoxy-2-(3-methoxystyryl)benzene]
109 to 110 | COc1ccc(/C=C/c2cc(F)ccc2F)cc1 [trans stilbene 23, (E)-1,4-Difluoro-2-(4-methoxystyryl)benzene]
85 to 86 | Fc1ccc(/C=C/c2ccccc2F)cc1F [trans stilbene 24, (E)-1,2-Difluoro-4-(2-fluorostyryl)benzene]
73 to 74 | Fc1cccc(/C=C/c2cc(F)ccc2F)c1 [trans stilbene 34, (E)-1,4-Difluoro-2-(3-fluorostyryl)benzene]
84 to 85 | Fc1ccc(/C=C/c2ccccc2F)c(F)c1 [trans stilbene 36, (E)-2,4-Difluoro-1-(2-fluorostyryl)benzene]
67 to 69 | COc1cccc(/C=C/c2ccc(C(F)(F)F)cc2)c1OC [trans stilbene 54, (E)-1,2-Dimethoxy-3-(4-(trifluoromethyl)styryl)benzene]
38 to 40 | COc1cccc(/C=C/c2ccc(C)cc2)c1OC [trans stilbene 48, (E)-1,2-Dimethoxy-3-(4-methylstyryl)benzene]
49 to 50 | COc1cccc(/C=C/c2ccccc2OC)c1 [trans stilbene 49, (E)-1-Methoxy-2-(3-methoxystyryl)benzene]
90 to 92 | Cc1ccc(/C=C/c2ccc(F)c(F)c2)cc1 [trans stilbene 22, (E)-1,2-Difluoro-4-(4-methylstyryl)benzene]
73 to 74 | COc1ccc(/C=C/c2ccc(F)c(F)c2)cc1 [trans stilbene 26, (E)-1,2-Difluoro-4-(4-methoxystyryl)benzene]
58 to 59 | COc1ccc(OC)c(/C=C/c2ccc(F)cc2)c1 [trans stilbene 18, (E)-2-(4-Fluorostyryl)-1,4-dimethoxybenzene]
60 to 61 | Fc1cccc(/C=C/c2ccc(F)cc2F)c1 [trans stilbene 35, (E)-2,4-Difluoro-1-(3-fluorostyryl)benzene]
48 to 49 | Fc1cccc(/C=C/c2ccc(F)c(F)c2)c1 [trans stilbene 30, (E)-1,2-Difluoro-4-(3-fluorostyryl)benzene]
